Source: patent US9957289B2, “Compounds and methods for treating bacterial infections” (Washington University, priority 2013, dated 2018)
Converted amounts (≈) assume the structure as drawn. “Also recorded” adds a separate entry of the source.

Columns and labels:
FimH = molecular target: T1, FimH (Escherichia coli, UniProt P08191); assay: Hemagglutination inhibition (HAI) assay, guinea pig red blood cells; type: cell-based, E. coli; settings: concentration inhibiting >90% hemagglutination of guinea pig red blood cells
T1 construct: endogenous in cells; host or cells: type 1 piliated uropathogenic E. coli (UPEC)
Method: FIG. 15 depicts the hemagglutination assay (HA) used to assess the compounds' ability to block FimH mediated binding. The HAI titer quantitatively measure the effect of inhibitors on blocking the FimH-mediated hemagglutination (HA) of guinea pig red blood cell infected with E. coli.
In some embodiments, activity of the compound is measured using hemmagglutination titer of guinea pig red blood cells. Hemagglutination of guinea pig red blood cells by type1 piliated UPEC is dependent upon FimH mannose binding ability and serial dilutions allow a quantitative analysis.
Hemagglutination assays for mannose-sensitive agglutination of guinea pig red blood cells were performed as previously described.

UTI89 [1] = assay: Mouse model of acute UTI, bladder bacterial CFU after UTI89 infection; type: in vivo, Escherichia coli; settings: for total bacterial CFUs in the bladder: mice, 6 hpi
Method: The efficacy of in vivo mannoside treatment was evaluated after orally dosing animals with 50 mg/kg of mannosides ZFH-4269 (FIG. 1A), ZFH-5254 (FIG. 1B) and ZFH-5240 (FIG. 1C) or DMSO or PBS 30 min prior to infecting with UTI89. At 6 hours post-infection (hpi) the bladders were removed and total bacterial CFUs were quantitated. […] Next, analogs of 254 were evaluated in the same mouse model of urinary tract infection. Animals were orally dosed with 25 mg/kg of mannosides ZFH-4269 (FIG. 2A), 1CJ68 (FIG. 2B) and 1CJ70 (FIG. 2C) in 10% cyclodextrin or 10% cyclodextrin 30 min prior to infecting with UT189.
The efficacy of in vivo mannoside treatment was evaluated after orally dosing animals with 25 mg/kg of mannosides ZFH269, Prodrug FIM-4269, ZFH-5254, and ZFH-5240 in 10% cyclodextrin or 10% cyclodextrin 30 min prior to infecting with UTI89. At 6 hours post-infection (hpi) the bladders were removed and total bacterial CFUs were quantitated. […] Next, several different prodrugs were evaluated in the same mouse model of urinary tract infection. Animals were orally dosed with 25 mg/kg of mannosides ZFH-4269, prodrug FIM-1233 (FIG. 8B), prodrug FIM-6123 (FIG. 8C) and prodrug 269 in 10% cyclodextrin or 10% cyclodextrin 30 min prior to infecting with UT189.
The FimH-mannose interaction was further investigated in an effort to develop potential ligand-based antagonists of UTIs. […] The non-reducing Man4 anchors into the mannose-binding pocket while the GlcNAc folds over Thr51 allowing specific interactions with a hydrophobic tyrosine gate. Heptyl mannoside mimics the GlcNAc tail of oligomannose-3 and extends it further to increase interactions outside the binding pocket resulting in high affinity binding (Kd=5 nM). Based on the high affinity of heptyl mannose for FimH, the ability of heptyl mannose to reduce bacterial infection in our mouse model of UTI was tested. First, biofilm formation as a surrogate for IBCs formed in the bladder was evaluated. […] Thus, UPEC strain UTI89 was incubated with heptyl mannose prior to inoculation into the bladders of mice.
Bacteria were grown under type 1 pili-inducing conditions (2×24 h at 37° C. statically in LB). The bacteria were harvested and resuspended to an OD600 of 0.5 in PBS. Eight-week-old C3H/HeN (Harlan) female mice were anesthetized by inhalation of isoflurane and infected via transurethral catheterization with […] of the bacterial suspension, resulting in 1-2×10^7 inoculum. At 6 hpi, mice were sacrificed by cervical dislocation under anesthesia and the bladders were immediately harvested and processed as described below. All animal studies using mice were approved by the Animal Studies Committee of Washington University (Animal Protocol Number 20100002).
Mannoside ZFH-2056 was administered either IP (5 mg/kg) or orally (100 mg/kg) 30 min prior to inoculation with UTI89. To enumerate the bacteria present, mice were sacrificed at 6 hpi and bladders were aseptically removed and homogenized in 1 ml PBS, serially diluted and plated onto LB agar plates. CFU was enumerated after 16 h of growth at 37° C.

[2] = Rat pharmacokinetics, IV and PO; type: in vivo
Method: Mannoside compounds FIM-4269, FIM-5240, FIM-5254, FIM-1CJ82 and FIM-1CJ66 (FIG. 3) were evaluated for pharmacokinetics in the rat. Mannosides were dose IV at 3 mg/kg and PO at 10 mg/kg. Urine and plasma were collected at 15 min, 30 min, 1 hour, 2 hours, 4 hours and 8 hours.

[3] = Mouse oral PK, mannoside concentration in urine; type: in vivo; settings: mice, 50 mg/kg oral; for detectability in urine: samples at 1, 3, 6 and 8 hours
Method: Compounds ZFH-4269 (FIG. 6A), ZFH-5254 (FIG. 6B), ZFH5240 (FIG. 6C), and a Prodrug were dosed at 50 mg/kg and plasma and urine samples were taken at 1, 3, 6 and 8 hours after dosing. […] Taken together, the high oral bioavailability and in vivo efficacy observed in animal studies support mannosides as promising therapeutic candidates for UTI treatment/prevention.
For intraperitoneal dosing, 50 μl of a 2 mg/ml (5 mg/kg) or 4 mg/ml (10 mg/kg) solution of ZFH-2056 in PBS was injected into the peritoneal cavity of the mouse. For oral dosing, 100 μl of a 20 mg/ml (100 mg/kg) solution of ZFH-2056 in 8% DMSO was inoculated with a gavage needle into the mouse stomach. Urine was collected at 30 min, 1, 2, 3, 4, 6, and 8 h post-treatment. An equal volume of 10 μM internal standard (ZFH-2050) was added to the urine. Mannosides were extracted from the urine by loading on C18 columns (100 mg, Waters), washing with 30% methanol, and eluting with 60% methanol. Vacuum-concentrated eluates were analyzed using liquid chromatography-mass spectrometry system30 with a lower heated capillary temperature of 190° C. and a gradiert as follows: Solvent B (80% acetonitrile in 0.1% formic acid) was held constant at 5% for 5 minutes, increased to 44% B by 45 minutes, and then to a 95% B by 65 minutes. SRM mode quantification was performed with collision gas energy of 30% for the following MS/MS transitions (precursor m/z/product m/z): compound ZFH-2056, 447/285; compound ZFH-2050, 390/228. Absolute quantification was achieved by comparison to a calibration curve.

PBC-1 = assay: Growth curve / MIC in TMP-SMZ, PBC-1; type: cell-based; settings: Escherichia coli; PBC-1, growth curves in TMP-SMZ; read-out: Minimum Inhibition Concentration (MIC)
Method: Mice were IP treated with 6 30 min prior to inoculation with bacteria and compared to a control group of untreated animals. After inoculation with UTI89 or PBC-1, bacterial CFUs were quantified at 6 hpi.
Mannoside ZFH-2056 was added at 100 μM. Growth curves were performed in a 96-well plate at 37° C. with A600 readings taken every 30 min for 8 h.

UTI89 [4] = assay: microbe, parasite or virus in culture; settings: Escherichia coli
UTI89 [5] = assay: UTI89 biofilm formation in urine under flow; type: cell-based, Escherichia coli; settings: 1% in urine under flow
Description: To investigate the potential therapeutic effects of mannosides on CAUTI, we first assessed the inhibitory effects of methyl-a-D-mannopyranoside (methyl mannose), on UTI89 biofilm formation in urine under flow.

[6] = 25 mg/kg oral in 10% cyclodextrin 30 min prior to infecting with UTI89

T1 sequence (P08191 22-300): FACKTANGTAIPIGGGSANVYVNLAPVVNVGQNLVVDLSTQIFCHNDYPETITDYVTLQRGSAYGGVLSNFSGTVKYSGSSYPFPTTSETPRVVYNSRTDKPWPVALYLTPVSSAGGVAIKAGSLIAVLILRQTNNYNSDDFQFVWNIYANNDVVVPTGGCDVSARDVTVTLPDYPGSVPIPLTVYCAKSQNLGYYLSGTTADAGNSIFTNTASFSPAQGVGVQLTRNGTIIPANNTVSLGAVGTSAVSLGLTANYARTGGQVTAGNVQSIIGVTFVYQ

## CNC(=O)c1cccc(-c2ccc([C@@H](O)C3OC(CO)C(O)C(O)C3O)c(C)c2)c1 (single isomer, unassigned) [Example 18A]
FimH
  HAI Titer EC>90: 0.031 µM
UTI89 [1]; [6]
  total bacterial CFUs in the bladder: drop in bacterial counts
UTI89 [1]; 50 mg/kg oral 30 min prior to infecting with UTI89, vs DMSO or PBS, listed as 240, 50 mg/kg
  total bacterial CFUs in the bladder: reduced bacterial titers in the bladder relative to DMSO and PBS
UTI89 [1]; 50 mg/kg oral 30 min prior to infecting with UTI89, vs DMSO or PBS, listed as ZFH-5240, 50 mg/kg
  total bacterial CFUs in the bladder: drop in bacterial counts
[2]; IV 3 mg/kg
  time plasma concentration remained above the limit of detection: 2.5 h
[2]; IV 3 mg/kg, listed as FIM-5240, 3 mg/kg
  mean plasma concentration / PK after IV dose: the highest relative to the other 4 mannosides; also recorded: best PK
[2]; PO 10 mg/kg
  pharmacokinetics after PO dose: best pharmacokinetics relative to the other mannosides
  time at which plasma concentration fell below the limit of detection: 2 h
[3]
  detectability in urine: detectable in the urine out to 8 hours post-treatment
[3]; within a 6-hour period
  level of concentration in the urine: consistently maintained a high level of concentration in the urine

## Cc1cc(-c2ccc3cc[nH]c(=O)c3c2)ccc1O[C@H]1O[C@@H](CO)[C@@H](O)[C@H](O)[C@H]1O [Example 7, 7-[3-methyl-4-[(2R,3R,4S,5S,6S)-3,4,5-trihydroxy-6-(hydroxymethyl)tetrahydropyran-2-yl]oxy-phenyl]-2H-isoquinolin-1-one]
FimH
  HAI Titer EC>90: 0.030 µM
UTI89 [1]; [6]
  total bacterial CFUs in the bladder: drop in bacterial counts
UTI89 [1]; 50 mg/kg oral 30 min prior to infecting with UTI89, vs DMSO or PBS, listed as 254, 50 mg/kg
  total bacterial CFUs in the bladder: reduced bacterial titers in the bladder relative to DMSO and PBS
UTI89 [1]; 50 mg/kg oral 30 min prior to infecting with UTI89, vs DMSO or PBS, listed as ZFH-5254, 50 mg/kg
  total bacterial CFUs in the bladder: drop in bacterial counts
[3]
  detectability in urine: detectable in the urine out to 8 hours post-treatment

## CNC(=O)c1cccc(-c2ccc(OC3OC(COP(=O)(O)O)C(O)C(O)C3O)c(C)c2)c1 [Example 21, [(2S,3S,4S,5R,6R)-3,4,5-trihydroxy-6-[2-methyl-4-[3-(methylcarbamoyl)phenyl]phenoxy]tetrahydropyan-2-yl]methyl dihydrogen phosphate]
UTI89 [1]; [6]
  total bacterial CFUs in the bladder: drop in bacterial counts

## CNC(=O)c1cccc(-c2ccc(O[C@H]3O[C@@H](COC(=O)CN(C)C)[C@@H](O)[C@H](O)[C@H]3O)c(C)c2)c1 [Example 22, [(2S,3S,4S,5R,6R)-3,4,5-trihydroxy-6-[2-methyl-4-[3-(methylcarbamoyl)phenyl]phenoxy]tetrahydropyran-2-yl]methyl 2-dimethylaminoacetate]
UTI89 [1]; [6]
  total bacterial CFUs in the bladder: drop in bacterial counts

## Cc1cc(NS(=O)(=O)c2ccc(N)cc2)no1 [SMZ, Sulfamethoxazole]
PBC-1
  MIC: 1280 µg/mL (≈ 5050 µM)
UTI89 [4]
  MIC: 0.25 µg/mL (≈ 0.987 µM)

## CNC(=O)c1cccc(-c2ccc(O[C@H]3O[C@@H](CO)[C@@H](O)[C@H](O)[C@H]3O)c(C)c2)c1 [ZFH-4269, N-methyl-3-[3-methyl-4-[(2R,3R,4S,5S,6S)-3,4,5-trihydroxy-6-(hydroxymethyl)tetrahydropyran-2-yl]oxy-phenyl]benzamide]
UTI89 [1]; acute UTI model (FIG. 27D)
  bladder titers: significantly reduce bladder titers
UTI89 [1]; 25 mg/kg oral in 10% cyclodextrin 30 min prior to infecting with UTI89, 25 mg/kg
  total bacterial CFUs in the bladder: drop in bacterial counts
UTI89 [1]; 25 mg/kg oral in 10% cyclodextrin 30 min prior to infecting with UTI89, listed as ZFH269, 25 mg/kg
  total bacterial CFUs in the bladder: drop in bacterial counts; also recorded: most efficiently reduced bacterial titers in the bladder; also recorded: significantly reduced bacterial titers in the bladder
UTI89 [1]; 50 mg/kg oral 30 min prior to infecting with UTI89, vs DMSO or PBS, 50 mg/kg
  total bacterial CFUs in the bladder: drop in bacterial counts
UTI89 [1]; 50 mg/kg oral 30 min prior to infecting with UTI89, vs DMSO or PBS, listed as 269, 50 mg/kg
  total bacterial CFUs in the bladder: reduced bacterial titers in the bladder relative to DMSO and PBS
[3]
  detectability in urine: detectable in the urine out to 8 hours post-treatment

## CO[C@H]1O[C@H](CO)[C@@H](O)[C@H](O)[C@@H]1O [methyl mannose, methyl-a-D-mannopyranoside]
UTI89 [5]; p=0.0012 vs untreated
  biofilm-adherent cells: significantly reduced
UTI89 [5]; p=0.0022 vs untreated
  biofilm biomass: significantly reduced
